This note sets out measurements from paper PMC6321646, “Evaluation of the Novel Synthetic Tyrosinase Inhibitor (Z)-3-(3-bromo-4-hydroxybenzylidene)thiochroman-4-one (MHY1498) In Vitro and In Silico” (Molecules, 2018).

The test concerns the target T1, mushroom tyrosinase (Agaricus bisporus, UniProt C7FF04).
T1 construct: gene PPO3
Briefly: dopachrome formation at […] nm, % inhibition at […]. Type of test: biochemical. The settings on record: read-out: 50μM / Mean ± SD (%).

T1 sequence (C7FF04 2-392): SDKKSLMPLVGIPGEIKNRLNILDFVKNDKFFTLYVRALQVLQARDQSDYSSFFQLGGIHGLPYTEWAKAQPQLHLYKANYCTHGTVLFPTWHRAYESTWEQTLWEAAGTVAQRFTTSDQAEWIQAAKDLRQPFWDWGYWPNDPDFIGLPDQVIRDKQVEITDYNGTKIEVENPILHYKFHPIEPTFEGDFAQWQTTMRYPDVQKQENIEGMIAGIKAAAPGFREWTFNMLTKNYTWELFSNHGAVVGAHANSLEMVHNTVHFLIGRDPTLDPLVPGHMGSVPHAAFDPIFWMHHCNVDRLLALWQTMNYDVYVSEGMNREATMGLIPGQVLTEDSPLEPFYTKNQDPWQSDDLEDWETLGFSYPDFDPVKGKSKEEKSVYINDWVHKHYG

As for `O=C1/C(=C/c2ccc(O)cc2)CSc2ccccc21` [a], the inhibition at 50 µM amounted to 81.6 ± 1%. The same measure for `COc1ccc(/C=C2\CSc3ccccc3C2=O)cc1O` [d]: 91.5 ± 6.2%.
